# Assay results from PubChem BioAssay AID1259407 (Chemical Carcinogenesis Research Information System (CCRIS), 2018).
# Activity calls are given as the source filed them. How the calls were made is not given here.
# System: CCRIS mutagenicity, Ames/micronucleus/aberration tests
# Experiment: CCRIS mutagenicity studies
smiles,measurement,setting,value
BrCCBr,mutagenic call,"End Point: IN VITRO CHROMOSOMAL ABERRATIONS, Test System: CHL CELLS, Metabolic Activation: RAT, LIVER, S-9, SODIUM PHENOBARBITAL AND 5,6-BENZOFLAVONE",active; positive (structural changes)
same,mutagenic call,"End Point: IN VITRO CHROMOSOMAL ABERRATIONS, Test System: CHO CELLS, Metabolic Activation: NONE",active; positive
same,mutagenic call,"End Point: IN VITRO CHROMOSOMAL ABERRATIONS, Test System: CHO CELLS, Metabolic Activation: RAT, LIVER, S-9, AROCLOR 1254",active; positive
same,mutagenic call,"Test System: AMES SALMONELLA TYPHIMURIUM, Strain/Indicator: TA97, Metabolic Activation: NONE, Method: STANDARD PLATE",active; positive
same,mutagenic call,"Test System: AMES SALMONELLA TYPHIMURIUM, Strain/Indicator: TA97, Metabolic Activation: RAT, LIVER, S-9, AROCLOR 1254, Method: STANDARD PLATE",active; positive
same,mutagenic call,"Test System: AMES SALMONELLA TYPHIMURIUM, Strain/Indicator: TA98, Metabolic Activation: NONE, Method: STANDARD PLATE",inactive; negative
same,mutagenic call,"Test System: AMES SALMONELLA TYPHIMURIUM, Strain/Indicator: TA98, Metabolic Activation: RAT, LIVER, S-9, AROCLOR 1254, Method: STANDARD PLATE",active; positive
same,mutagenic call,"Test System: AMES SALMONELLA TYPHIMURIUM, Strain/Indicator: TA100/NG-57, Metabolic Activation: CELL PRETREATMENT WITH GLUTATHIONE, Method: PREINCUBATION",active; positive
same,mutagenic call,"Test System: AMES SALMONELLA TYPHIMURIUM, Strain/Indicator: TA100/NG-57, Metabolic Activation: NONE, Method: PREINCUBATION",inactive; negative
same,mutagenic call,"Test System: AMES SALMONELLA TYPHIMURIUM, Strain/Indicator: TA100, Metabolic Activation: CELL PRETREATMENT WITH GLUTATHIONE, Method: PREINCUBATION",active; positive
same,mutagenic call,"Test System: AMES SALMONELLA TYPHIMURIUM, Strain/Indicator: TA100, Metabolic Activation: NONE",active; positive
same,mutagenic call,"Test System: AMES SALMONELLA TYPHIMURIUM, Strain/Indicator: TA100, Metabolic Activation: NONE, Method: PREINCUBATION",active; positive
same,mutagenic call,"Test System: AMES SALMONELLA TYPHIMURIUM, Strain/Indicator: TA100, Metabolic Activation: NONE, Method: SUSPENSION/PLATE",active; positive
same,mutagenic call,"Test System: AMES SALMONELLA TYPHIMURIUM, Strain/Indicator: TA100, Metabolic Activation: RAT, KIDNEY, S-9, AROCLOR 1254",active; positive
same,mutagenic call,"Test System: AMES SALMONELLA TYPHIMURIUM, Strain/Indicator: TA100, Metabolic Activation: RAT, LIVER, HEPATOCYTES, Method: SUSPENSION/PLATE",active; positive
same,mutagenic call,"Test System: AMES SALMONELLA TYPHIMURIUM, Strain/Indicator: TA100, Metabolic Activation: RAT, LIVER, S-9, AROCLOR 1254",active; positive
same,mutagenic call,"Test System: AMES SALMONELLA TYPHIMURIUM, Strain/Indicator: TA100, Metabolic Activation: RAT, LIVER, S-9, AROCLOR 1254, Method: STANDARD PLATE",active; positive
same,mutagenic call,"Test System: AMES SALMONELLA TYPHIMURIUM, Strain/Indicator: TA100, Metabolic Activation: RAT, LIVER, S-9, AROCLOR 1254 AND RAT, KIDNEY, S-9, AROCLOR 1254",active; positive
same,mutagenic call,"Test System: AMES SALMONELLA TYPHIMURIUM, Strain/Indicator: TA100, Metabolic Activation: S-9 MIX, Method: STANDARD PLATE",active; positive
same,mutagenic call,"Test System: AMES SALMONELLA TYPHIMURIUM, Strain/Indicator: TA102, Metabolic Activation: NONE, Method: STANDARD PLATE",inactive; negative
same,mutagenic call,"Test System: AMES SALMONELLA TYPHIMURIUM, Strain/Indicator: TA104, Metabolic Activation: NONE, Method: STANDARD PLATE",inactive; negative
same,mutagenic call,"Test System: AMES SALMONELLA TYPHIMURIUM, Strain/Indicator: TA104, Metabolic Activation: RAT, LIVER, S-9, AROCLOR 1254, Method: STANDARD PLATE",inactive; negative
same,mutagenic call,"Test System: AMES SALMONELLA TYPHIMURIUM, Strain/Indicator: TA1530, Metabolic Activation: NONE, Method: SPOT",active; positive
same,mutagenic call,"Test System: AMES SALMONELLA TYPHIMURIUM, Strain/Indicator: TA1535/NG-19, Metabolic Activation: CELL PRETREATMENT WITH GLUTATHIONE, Method: PREINCUBATION",active; positive
same,mutagenic call,"Test System: AMES SALMONELLA TYPHIMURIUM, Strain/Indicator: TA1535/NG-19, Metabolic Activation: NONE, Method: PREINCUBATION",active; positive
same,mutagenic call,"Test System: AMES SALMONELLA TYPHIMURIUM, Strain/Indicator: TA1535, Metabolic Activation: CELL PRETREATMENT WITH GLUTATHIONE, Method: PREINCUBATION",active; positive
same,mutagenic call,"Test System: AMES SALMONELLA TYPHIMURIUM, Strain/Indicator: TA1535, Metabolic Activation: NONE, Method: PREINCUBATION",active; positive
same,mutagenic call,"Test System: AMES SALMONELLA TYPHIMURIUM, Strain/Indicator: TA1535, Metabolic Activation: NONE, Method: STANDARD PLATE",active; positive
same,mutagenic call,"Test System: AMES SALMONELLA TYPHIMURIUM, Strain/Indicator: TA1535, Metabolic Activation: RAT, KIDNEY, S-9, AROCLOR 1254",active; positive
same,mutagenic call,"Test System: AMES SALMONELLA TYPHIMURIUM, Strain/Indicator: TA1535, Metabolic Activation: RAT, LIVER, S-9, AROCLOR 1254, Method: PREINCUBATION",active; positive
same,mutagenic call,"Test System: AMES SALMONELLA TYPHIMURIUM, Strain/Indicator: TA1535, Metabolic Activation: RAT, LIVER, S-9, AROCLOR 1254, Method: STANDARD PLATE",active; positive
same,mutagenic call,"Test System: AMES SALMONELLA TYPHIMURIUM, Strain/Indicator: TA1535, Metabolic Activation: RAT, LIVER, S-9, AROCLOR 1254 AND RAT, KIDNEY, S-9, AROCLOR 1254",active; positive
same,mutagenic call,"Test System: AMES SALMONELLA TYPHIMURIUM, Strain/Indicator: TA1535, Metabolic Activation: RAT, LIVER, S-9, PHENOBARBITAL, Method: STANDARD PLATE",active; positive
same,mutagenic call,"Test System: AMES SALMONELLA TYPHIMURIUM, Strain/Indicator: TA2638, Metabolic Activation: NONE, Method: STANDARD PLATE",inactive; negative
same,mutagenic call,"Test System: AMES SALMONELLA TYPHIMURIUM, Strain/Indicator: YG7100, Metabolic Activation: NONE, Method: PREINCUBATION",active; positive
same,mutagenic call,"Test System: AMES SALMONELLA TYPHIMURIUM, Strain/Indicator: YG7104, Metabolic Activation: NONE, Method: PREINCUBATION",active; positive
same,mutagenic call,"Test System: AMES SALMONELLA TYPHIMURIUM, Strain/Indicator: YG7108, Metabolic Activation: NONE, Method: PREINCUBATION",active; positive
same,mutagenic call,"Test System: AMES SALMONELLA TYPHIMURIUM, Strain/Indicator: YG7112, Metabolic Activation: NONE, Method: PREINCUBATION",active; positive
same,mutagenic call,"Test System: AMES SALMONELLA TYPHIMURIUM, Strain/Indicator: YG7113, Metabolic Activation: NONE, Method: PREINCUBATION",active; positive
same,mutagenic call,"Test System: AMES SALMONELLA TYPHIMURIUM, Strain/Indicator: YG7119, Metabolic Activation: NONE, Method: PREINCUBATION",active; positive
same,mutagenic call,"Test System: CHINESE HAMSTER OVARY, Strain/Indicator: CHO-K1 (HPRT)/6-THIOGUANINE, Metabolic Activation: NONE, Method: SUSPENSION/PLATE",active; positive
same,mutagenic call,"Test System: CHINESE HAMSTER OVARY, Strain/Indicator: CHO-K1-BH4 (HGPRT)/6-THIOGUANINE, Metabolic Activation: NONE",inactive; negative
same,mutagenic call,"Test System: E. COLI, Strain/Indicator: K12(AB1157), Metabolic Activation: NONE, Method: SUSPENSION/PLATE",inactive; negative
same,mutagenic call,"Test System: E. COLI, Strain/Indicator: K12(AB1157), Metabolic Activation: RAT, LIVER, S-9, PHENOBARBITAL AND BETA-NAPHTHOFLAVONE, Method: SUSPENSION/PLATE",inactive; negative
same,mutagenic call,"Test System: E. COLI, Strain/Indicator: K12(AB1886) UVRA, Metabolic Activation: NONE, Method: SUSPENSION/PLATE",active; positive
same,mutagenic call,"Test System: E. COLI, Strain/Indicator: K12(AB1886) UVRA, Metabolic Activation: RAT, LIVER, S-9, PHENOBARBITAL AND BETA-NAPHTHOFLAVONE, Method: SUSPENSION/PLATE",active; positive
same,mutagenic call,"Test System: E. COLI, Strain/Indicator: K12(AB2480) RECA/UVRA, Metabolic Activation: NONE, Method: SUSPENSION/PLATE",inactive; negative
same,mutagenic call,"Test System: E. COLI, Strain/Indicator: K12(AB2480) RECA/UVRA, Metabolic Activation: RAT, LIVER, S-9, PHENOBARBITAL AND BETA-NAPHTHOFLAVONE, Method: SUSPENSION/PLATE",inactive; negative
same,mutagenic call,"Test System: E. COLI, Strain/Indicator: WP2 UVRA (PKM101), Metabolic Activation: NONE, Method: STANDARD PLATE",active; positive
same,mutagenic call,"Test System: MOUSE LYMPHOMA, Strain/Indicator: L5178Y (TK+/TK-), Metabolic Activation: NONE, Method: SUSPENSION/PLATE",active; positive
same,mutagenic call,"Test System: MOUSE LYMPHOMA, Strain/Indicator: L5178Y (TK+/TK-), Metabolic Activation: RAT, LIVER, S-9, AROCLOR 1254, Method: SUSPENSION/PLATE",active; positive
